Ends that are not written are not given here.
Columns and labels:
adenylate cyclase [1] = conditions: measured as amides; for pA2 Value: negative logarithm of the antagonist concentration that reduces the response to 1 unit of agonist to that of 0.5 unit; for % Relative Activity: relative potency in stimulating adenylate cyclase
Protocol: The inhibition index is the molar ratio of antagonist to agonist which reduces the biological response to one half of the value for the agonist in the absence of antagonist. It will be discussed more fully hereinafter.
Adenylate Cyclase Assay. The assay on liver membranes was performed according to Salomon et al. [Salomon, Y., Londos, C. & Rodbell, M. Anal. Biochem. 58, 541, 548 (1974)].
The purpose of the adenylate cyclase assay is to measure the ability of the compound under test to stimulate the activity of adenylate cyclase. The assays are used to measure relative potency, maximum activity and inhibition index.
The inhibition index, defined above, was determined from adenylate cyclase assays by two different protocols. • 1. A glucagon standard curve for cAMP vs glucagon concentration was established. Then another glucagon assay curve was measured in the presence of a constant amount of antagonist. […] A series of tubes were set up containing an amount of glucagon which will produce 90% of maximum response. Increasing amounts of antagonist were then added and the concentration that reduced the response to 45% of maximum was determined.

glucagon receptor = conditions: prior-art antagonist, background; cited from earlier work
[2] = test system: another binding system in the hepatocyte membrane; conditions: prior-art antagonist, background; cited from earlier work
adenylate cyclase [3] = conditions: prior-art antagonist, background; cited from earlier work

Row | Compound | pA2 Value (adenylate cyclase [1]) | % Relative Activity (adenylate cyclase [1]) [%] | binding to the glucagon receptor (glucagon receptor) | production of inositol trisphosphate and calcium ions [2] | activation of adenylate cyclase (adenylate cyclase [3])
1 | CSCC[C@H](NC(=O)[C@H](CC(C)C)NC(=O)[C@H](Cc1c[nH]c2ccccc12)NC(=O)[C@H](CCC(N)=O)NC(=O)[C@@H](NC(=O)[C@H](Cc1ccccc1)NC(=O)[C@H](CC(=O)O)NC(=O)[C@H](CCC(N)=O)NC(=O)[C@H](C)NC(=O)[C@H](CCCNC(=N)N)NC(=O)[C@H](CCCNC(=N)N)NC(=O)[C@H](CO)NC(=O)[C@H](CC(=O)O)NC(=O)[C@H](CC(C)C)NC(=O)[C@H](Cc1ccc(O)cc1)NC(=O)[C@H](CCCCN)NC(=O)[C@H](CO)NC(=O)[C@H](Cc1ccc(O)cc1)NC(=O)[C@@H](CC(=O)O)NC(=O)[C@H](CO)NC(=O)[C@@H](NC(=O)[C@H](Cc1ccccc1)NC(=O)[C@@H](NC(=O)CNC(=O)[C@H](CCC(N)=O)NC(=O)[C@@H](N)CO)[C@@H](C)O)[C@@H](C)O)C(C)C)C(=O)N[C@@H](CC(N)=O)C(=O)N[C@H](C(N)=O)[C@@H](C)O [compound 10, des-His^1[D-Asp^9]] | 5.9 | <0.0028 | – | – | –
2 | CSCC[C@H](NC(=O)[C@H](CC(C)C)NC(=O)[C@H](Cc1c[nH]c2ccccc12)NC(=O)[C@H](CCC(N)=O)NC(=O)[C@@H](NC(=O)[C@H](Cc1ccccc1)NC(=O)[C@H](CC(=O)O)NC(=O)[C@H](CCC(N)=O)NC(=O)[C@H](C)NC(=O)[C@H](CCCNC(=N)N)NC(=O)[C@H](CCCNC(=N)N)NC(=O)[C@H](CO)NC(=O)[C@H](CC(=O)O)NC(=O)[C@H](CC(C)C)NC(=O)[C@H](Cc1ccc(O)cc1)NC(=O)[C@H](CCCCN)NC(=O)[C@H](CO)NC(=O)[C@H](Cc1ccc(O)cc1)NC(=O)[C@@H](CCC(=O)O)NC(=O)[C@H](CO)NC(=O)[C@@H](NC(=O)[C@H](Cc1ccccc1)NC(=O)[C@@H](NC(=O)CNC(=O)[C@H](CCC(N)=O)NC(=O)[C@@H](N)CO)[C@@H](C)O)[C@@H](C)O)C(C)C)C(=O)N[C@@H](CC(N)=O)C(=O)N[C@H](C(N)=O)[C@@H](C)O [compound 11, des-His^1[D-Glu^9]] | 5.4 | <0.0037 | – | – | –
3 | COC(=O)CC[C@H](NC(=O)[C@H](CO)NC(=O)[C@@H](NC(=O)[C@H](Cc1ccccc1)NC(=O)[C@@H](NC(=O)CNC(=O)[C@H](CCC(N)=O)NC(=O)[C@@H](N)CO)[C@@H](C)O)[C@@H](C)O)C(=O)N[C@@H](Cc1ccc(O)cc1)C(=O)N[C@@H](CO)C(=O)N[C@@H](CCCCN)C(=O)N[C@@H](Cc1ccc(O)cc1)C(=O)N[C@@H](CC(C)C)C(=O)N[C@@H](CC(=O)O)C(=O)N[C@@H](CO)C(=O)N[C@@H](CCCNC(=N)N)C(=O)N[C@@H](CCCNC(=N)N)C(=O)N[C@@H](C)C(=O)N[C@@H](CCC(N)=O)C(=O)N[C@@H](CC(=O)O)C(=O)N[C@@H](Cc1ccccc1)C(=O)N[C@H](C(=O)N[C@@H](CCC(N)=O)C(=O)N[C@@H](Cc1c[nH]c2ccccc12)C(=O)N[C@@H](CC(C)C)C(=O)N[C@@H](CCSC)C(=O)N[C@@H](CC(N)=O)C(=O)N[C@H](C(N)=O)[C@@H](C)O)C(C)C [compound 12, des-His^1[Glu^9-(OCH3)]] | 7.35 | 0.011 | – | – | –
4 | CCCC[C@H](NC(=O)[C@H](CO)NC(=O)[C@@H](NC(=O)[C@H](Cc1ccccc1)NC(=O)[C@@H](NC(=O)CNC(=O)[C@H](CCC(N)=O)NC(=O)[C@@H](N)CO)[C@@H](C)O)[C@@H](C)O)C(=O)N[C@@H](Cc1ccc(O)cc1)C(=O)N[C@@H](CO)C(=O)N[C@@H](CCCCN)C(=O)N[C@@H](Cc1ccc(O)cc1)C(=O)N[C@@H](CC(C)C)C(=O)N[C@@H](CC(=O)O)C(=O)N[C@@H](CO)C(=O)N[C@@H](CCCNC(=N)N)C(=O)N[C@@H](CCCNC(=N)N)C(=O)N[C@@H](C)C(=O)N[C@@H](CCC(N)=O)C(=O)N[C@@H](CC(=O)O)C(=O)N[C@@H](Cc1ccccc1)C(=O)N[C@H](C(=O)N[C@@H](CCC(N)=O)C(=O)N[C@@H](Cc1c[nH]c2ccccc12)C(=O)N[C@@H](CC(C)C)C(=O)N[C@@H](CCSC)C(=O)N[C@@H](CC(N)=O)C(=O)N[C@H](C(N)=O)[C@@H](C)O)C(C)C [compound 18, des - His^1 [Nle^9] glucagon amide] | 7.6 | <0.0012 | – | – | –
5 | DSQGTFTSHYSKYLDSRRAQDFVQWLMNT-NH2 [compound 9, Asp^1His^9] | 6.3 | <0.0009 | – | – | –
6 | HSQGTFTSYSKYLDSRRAQDFVQWLMNT-NH2 [compound 2, des-Asp^9] | 7.2 | 1.04 | – | – | –
7 | Nα- trinitrophenyl [12-homoarginine] glucagon | – | – | does bind to the glucagon receptor | activates another binding system in the hepatocyte membrane leading to the production of inositol trisphosphate and calcium ions | without significant activation of adenylate cyclase
8 | SQGTFTSFYSKYLDSRRAQDFVQWLMNT-NH2 [compound 19, des-His^1[Phe^9]] | 6.2 | <0.0003 | – | – | –
9 | SQGTFTSGYSKYLDSRRAQDFVQWLMNT-NH2 [compound 15, des - His^1 [Gly^9] glucagon amide] | 6.24 | <0.006 | – | – | –
10 | SQGTFTSHYSKYLDSRRAQDFVQWLMNT-NH2 [compound 17, des-His^1[His^9]] | 7.0 | 0.011 | – | – | –
11 | SQGTFTSKYSKYLDSRRAQDFVQWLMNT-NH2 [compound 16, des - His^1 [Lys^9] glucagon amide] | 7.35 | <0.0012 | – | – | –
12 | SQGTFTSNYSKYLDSRRAQDFVQWLMNT-NH2 [compound 13, des-His^1[Asn^9]] | 6.52 | <0.0026 | – | – | –
13 | SQGTFTSQYSKYLDSRRAQDFVQWLMNT-NH2 [compound 14, des-His^1[Gln^9]] | 8.21 | <0.003 | – | – | –
14 | SQGTFTSYSKYLDSRRAQDFVQWLMNT-NH2 [compound 20, des-His^1des-Asp^9] | 5.5 | <0.0022 | – | – | –

From patent publication EP0546013B1, “GLUCAGON ANALOGS WITH ASP-9 REPLACEMENTS OR DELETIONS” (THE ROCKEFELLER UNIVERSITY, priority 1990, dated 1997)
